Assay results published in the supplement of paper PMC10307832.

Columns and labels:
Assay in all cases: relative viability (nuclei count vs DMSO), 5 days (fraction); higher = more cells survive
[1] = compound: O=c1[nH]cc(F)c(=O)[nH]1 [5-Fluorouracil] + N=C(N)NC(=N)NCCc1ccccc1 [Phenformin] (partner 250 µM)
Procedure, shortened: (§1)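 Lung cancer cell lines were pin-tool dosed in 1536-well plates on the day after seeding, with either a lone drug or a fixed anchor-drug dose plus five library-drug doses (not always all listed) in √10 steps. Nuclei were counted on 4× images after 5 days. Relative viability is the ratio of treated-well to vehicle-well nuclei counts, with each value a median of duplicate plates.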

Sulindac + Crizotinib = compound: CC1=C(CC(=O)O)c2cc(F)ccc2/C1=C\c1ccc([S+](C)[O-])cc1 [Sulindac] + C[C@@H](Oc1cc(-c2cnn(C3CCNCC3)c2)cnc1N)c1c(Cl)ccc(F)c1Cl [Crizotinib] (partner 1 µM)
Procedure, shortened: as §1

[2] = compound: O=c1[nH]cc(F)c(=O)[nH]1 [5-Fluorouracil] + CC1(C)CCC(c2ccc(Cl)cc2)=C(CN2CCN(c3ccc(C(=O)NS(=O)(=O)c4ccc(N[C@H](CCN5CCOCC5)CSc5ccccc5)c(S(=O)(=O)C(F)(F)F)c4)cc3)CC2)C1 [Navitoclax] (partner 0.5 µM)
Procedure, shortened: as §1

Sulindac + Bortezomib = compound: CC1=C(CC(=O)O)c2cc(F)ccc2/C1=C\c1ccc([S+](C)[O-])cc1 [Sulindac] + CC(C)C[C@H](NC(=O)[C@H](Cc1ccccc1)NC(=O)c1cnccn1)B(O)O [Bortezomib] (partner 0.002 µM)
Procedure, shortened: as §1

Cell Line: UMC-11
- relative viability ([1]; first compound 0.02 µM): 0.368
- relative viability ([1]; first compound 0.2 µM): 0.308
- relative viability ([1]; first compound 0.6325 µM): 0.326
- relative viability ([1]; first compound 2 µM): 0.339
- relative viability (Sulindac + Crizotinib; first compound 0.08 µM): 0.862
- relative viability (Sulindac + Crizotinib; first compound 0.253 µM): 0.525
- relative viability (Sulindac + Crizotinib; first compound 0.8 µM): 0.66
- relative viability (Sulindac + Crizotinib; first compound 2.53 µM): 0.578
- relative viability (Sulindac + Crizotinib; first compound 8 µM): 0.901
- relative viability ([2]; first compound 0.02 µM): 0.386
- relative viability ([2]; first compound 0.2 µM): 0.322
- relative viability ([2]; first compound 0.6325 µM): 0.286
- relative viability ([2]; first compound 2 µM): 0.241
- relative viability (Sulindac + Bortezomib; first compound 0.08 µM): 0.952
- relative viability (Sulindac + Bortezomib; first compound 0.253 µM): 0.996
- relative viability (Sulindac + Bortezomib; first compound 0.8 µM): 0.359
- relative viability (Sulindac + Bortezomib; first compound 2.53 µM): 0.703
- relative viability (Sulindac + Bortezomib; first compound 8 µM): 0.846
